From ChEMBL document CHEMBL3044547, “2-Substituted-8-methyl-3,6-dihydroimidazo[4,5-c]pyrazolo[3,4-e]pyridazine as an anti-inflammatory agent” (2011)

Tests used:
Assay type in all cases: functional
Rattus norvegicus [1] = test: Anti-inflammatory activity in Rattus norvegicus albino (rat) assessed as carageenaan-induced paw edema at 100 mg/kg, po administered 1 hr prior to carageenaan-challenge measured at 30 min relative to control (reference value: 30.1%)
Rattus norvegicus [2] = test: Anti-inflammatory activity in Rattus norvegicus albino (rat) assessed as carageenaan-induced paw edema at 100 mg/kg, po administered 1 hr prior to carageenaan-challenge measured at 90 min relative to control (reference value: 38.7%)
Rattus norvegicus [3] = test: Anti-inflammatory activity in Rattus norvegicus albino (rat) assessed as carageenaan-induced paw edema at 100 mg/kg, po administered 1 hr prior to carageenaan-challenge measured at 180 min relative to control (reference value: 22.3%)
Rattus norvegicus [4] = test: Anti-inflammatory activity against carageenaan-induced paw edema in Rattus norvegicus albino (rat) at 100 mg/kg, po administered 1 hr prior to carageenaan-challenge measured up to 3 hr
Rattus norvegicus [5] = test: Anti-inflammatory activity in Rattus norvegicus albino (rat) assessed as carageenaan-induced paw edema at 100 mg/kg, po administered 1 hr prior to carageenaan-challenge measured at 90 min (reference value: 100%)
Rattus norvegicus [6] = test: Anti-inflammatory activity in Rattus norvegicus albino (rat) assessed as carageenaan-induced paw edema at 100 mg/kg, po administered 1 hr prior to carageenaan-challenge measured at 30 min (reference value: 100%)
Rattus norvegicus [7] = test: Anti-inflammatory activity in Rattus norvegicus albino (rat) assessed as carageenaan-induced paw edema at 100 mg/kg, po administered 1 hr prior to carageenaan-challenge measured at 120 min (reference value: 100%)

Row | Structure (SMILES) | Activity (Rattus norvegicus [1]) [%] | Activity (Rattus norvegicus [2]) [%] | Activity (Rattus norvegicus [3]) [%] | Activity (Rattus norvegicus [4]) [%] | Activity (Rattus norvegicus [5]) [%] | Activity (Rattus norvegicus [6]) [%] | Activity (Rattus norvegicus [7]) [%]
1 | Cc1n[nH]c2nnc3nc(-c4ccccc4)[nH]c3c12 | 14.1 | 23.4 | 14.9 | 30 |  |  | 
2 | Cc1n[nH]c2nnc3nc(CCCCC(=O)O)[nH]c3c12 | 33.9 | 46.5 | 33.6 | 31 |  |  | 
3 | CC(C)Cc1ccc(C(C)C(=O)O)cc1 (centres undefined) [IBUPROFEN] |  |  |  | 49 | 108 | 101 | 11.6
4 | Cc1n[nH]c2nnc3nc(-c4ccccc4C(=O)O)[nH]c3c12 | 15.1 | 23.3 | 20.6 | 41 |  |  | 
5 | Cc1n[nH]c2nnc3nc(/C=C\c4ccccc4)[nH]c3c12 | 3.9 | 6.2 | 0.4 | 35 |  |  | 
6 | Cc1n[nH]c2nnc3nc(CCC(=O)O)[nH]c3c12 | 6.5 | 18.4 | 21.4 | 33 |  |  | 
